Measured values as given in ChEMBL document CHEMBL4251565, “Functionalized 2,1-benzothiazine 2,2-dioxides as new inhibitors of Dengue NS5 RNA-dependent RNA polymerase” (Eur J Med Chem, 2018).

Tests used:
[1] = target: T1, Nonstructural protein 5 (Dengue virus, UniProt V5TFZ2); experiment: Inhibition of DENV3 NS5 RdRp using ss-RNA PolyC as template and GTP as substrate assessed as decrease in dsRNA levels after 1 hr by PicoGreen-based fluorescence assay; design: species or system dengue virus type 3
[2] = target: T1, Nonstructural protein 5; experiment: Mixed type inhibition of DENV3 NS5 RdRp using increasing concentration of ss-RNA PolyC as template assessed as free enzyme after 1 hr in presence of GTP substrate by Lineweaver-Burk double reciprocal plot analysis; design: species or system dengue virus type 3
[3] = target: T1, Nonstructural protein 5; experiment: Mixed type inhibition of DENV3 NS5 RdRp using increasing concentration of ss-RNA PolyC as template assessed as enzyme-substrate complex after 1 hr in presence of GTP substrate by Lineweaver-Burk double reciprocal plot analysis; design: species or system dengue virus type 3
[4] = target: T1, Nonstructural protein 5; experiment: Mixed type inhibition of DENV3 NS5 RdRp using increasing concentration of GTP as substrate assessed as free enzyme after 1 hr in presence of ss-RNA PolyC template by Lineweaver-Burk double reciprocal plot analysis; design: species or system dengue virus type 3
[5] = target: T1, Nonstructural protein 5; experiment: Mixed type inhibition of DENV3 NS5 RdRp using increasing concentration of GTP as substrate assessed as enzyme-substrate complex after 1 hr in presence of ss-RNA PolyC template by Lineweaver-Burk double reciprocal plot analysis; design: species or system dengue virus type 3
[6] = target: T1, Nonstructural protein 5; experiment: Binding affinity to DENV3 NT-647-NHS labeled NS5 RdRp after 1 hr by microscale thermophoresis method; design: species or system dengue virus type 3
[7] = Cytotoxicity against African green monkey Vero E6 cells by Cell Titer-blue method; assay type: cell-based, Vero C1008; details: chlorocebus sabaeus
[8] = Induction of colloidal aggregate formation in aqueous medium at 50 uM measured for 5 mins by light scattering-based photon correlation spectroscopy; assay type: physicochemical; details: buffer
[9] = target: T1, Nonstructural protein 5; experiment: Inhibition of DENV3 full length NS5 RdRp assessed as decrease in dsRNA levels preincubated for 20 mins followed by ss-RNA and ATTO-CTP, ATP, GTP and UTP addition measured after 120 mins by FAPA assay; design: species or system dengue virus type 3

T1 sequence (V5TFZ2 whole entry): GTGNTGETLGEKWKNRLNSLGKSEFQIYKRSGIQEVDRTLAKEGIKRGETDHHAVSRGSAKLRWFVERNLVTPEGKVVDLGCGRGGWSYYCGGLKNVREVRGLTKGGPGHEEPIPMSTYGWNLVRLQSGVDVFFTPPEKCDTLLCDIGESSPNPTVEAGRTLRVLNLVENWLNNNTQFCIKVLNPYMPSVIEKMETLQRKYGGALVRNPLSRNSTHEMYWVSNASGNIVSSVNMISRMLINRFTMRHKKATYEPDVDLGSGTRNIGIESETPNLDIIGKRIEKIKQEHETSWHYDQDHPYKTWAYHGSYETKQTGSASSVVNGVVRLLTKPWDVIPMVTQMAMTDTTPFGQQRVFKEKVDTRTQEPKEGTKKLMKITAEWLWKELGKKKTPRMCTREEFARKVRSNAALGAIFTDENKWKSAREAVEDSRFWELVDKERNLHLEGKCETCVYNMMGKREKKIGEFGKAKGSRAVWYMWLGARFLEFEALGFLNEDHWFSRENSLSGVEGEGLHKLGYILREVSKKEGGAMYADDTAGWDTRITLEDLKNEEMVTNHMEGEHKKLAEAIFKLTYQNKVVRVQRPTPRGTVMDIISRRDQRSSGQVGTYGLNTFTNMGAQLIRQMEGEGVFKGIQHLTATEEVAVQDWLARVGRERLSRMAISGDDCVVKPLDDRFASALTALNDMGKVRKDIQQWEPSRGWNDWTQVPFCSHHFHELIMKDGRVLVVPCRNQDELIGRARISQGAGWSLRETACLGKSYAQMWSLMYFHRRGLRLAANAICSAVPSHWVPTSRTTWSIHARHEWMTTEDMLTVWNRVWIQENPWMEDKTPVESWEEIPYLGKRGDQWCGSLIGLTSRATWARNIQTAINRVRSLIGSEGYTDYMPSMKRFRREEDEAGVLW

IC50 [1] [µM] | Compound | also measured
8.4 | O=C(OC1=CS(=O)(=O)Nc2ccc(Oc3cccc(Br)c3)cc21)c1cccc([N+](=O)[O-])c1 | –
4.5 | O=C(O)c1cc(Oc2cccc(Br)c2)ccc1NS(=O)(=O)c1ccccc1 | –
> 50 | COC1=CS(=O)(=O)Nc2ccc(Oc3ccccc3Br)cc21 | –
46.2 | COC1=CS(=O)(=O)N(C(=O)c2ccccc2)c2ccc(Oc3ccccc3Br)cc21 | –
11.4 | O=C1CS(=O)(=O)N(C(=O)c2ccccc2)c2ccc(Oc3ccccc3Br)cc21 | –
0.6 | O=C(OC1=CS(=O)(=O)Nc2ccc(Oc3ccccc3Br)cc21)c1ccc(F)c(F)c1 | Ki [2]: 1.54 µM; Ki [3]: 4.33 µM; Ki [4]: 0.252 µM; Ki [5]: 1.58 µM; Kd [6]: 1.1 µM; CC50 [7]: 80 µM; Activity [8]: Not Active
13.6 | CN1c2c(C(=O)Nc3ccc(NS(C)(=O)=O)cc3)nn(-c3ccc(Cl)cc3)c2-c2ccccc2S1(=O)=O | –
6.3 | COc1ccc(C(=O)OC2=CS(=O)(=O)Nc3ccc(Oc4ccccc4Br)cc32)cc1[N+](=O)[O-] | –
0.9 | O=C(OC1=CS(=O)(=O)Nc2ccc(Oc3cccc(Br)c3)cc21)c1ccc(F)c(F)c1 | –
20.3 | COc1cccc(Oc2ccc3c(c2)C(OC(=O)c2ccccc2)=CS(=O)(=O)N3)c1 | –
41.5 | CCOC1=CS(=O)(=O)Nc2ccc(Oc3ccccc3Br)cc21 | –
15.8 | CC(C)(C)c1cccc(Oc2ccc3c(c2)C(OC(=O)c2ccccc2)=CS(=O)(=O)N3)c1 | –
2.6 | CN1c2ccc(Oc3cccc(Br)c3)cc2C(OC(=O)c2ccccc2)=CS1(=O)=O | –
7 | O=C(OC1=CS(=O)(=O)Nc2ccc(Oc3cccc(F)c3)cc21)c1ccccc1 | –
4.7 | O=C(OC1=CS(=O)(=O)Nc2ccc(Oc3ccc(Br)cc3)cc21)c1ccccc1 | –
4.7 | COc1ccc(C(=O)OC2=CS(=O)(=O)Nc3ccc(Oc4cccc(Br)c4)cc32)cc1[N+](=O)[O-] | –
7 | O=C(OC1=CS(=O)(=O)Nc2ccc(Oc3cccc(Br)c3)cc21)c1ccccc1 | –
6.9 | CCc1cccc(Oc2ccc3c(c2)C(OC(=O)c2ccccc2)=CS(=O)(=O)N3)c1 | –
17.3 | CN1c2c(C(=O)Nc3ccc(NS(C)(=O)=O)cc3)nn(-c3cccc(F)c3)c2-c2ccccc2S1(=O)=O | –
14.1 | Cc1ccc(-n2nc(C(=O)Nc3ccc(NS(C)(=O)=O)cc3)c3c2-c2ccccc2S(=O)(=O)N3C)cc1 | –
30.8 | O=C(OC1=CS(=O)(=O)Nc2ccc(Oc3ccccc3Br)cc21)c1ccccc1 | –
1.7 | O=C(O)c1cc(Oc2cccc(Br)c2)ccc1NS(=O)(=O)c1ccc([N+](=O)[O-])cc1 | –
> 50 | O=C1CCN(C(=O)c2ccccc2)c2ccc(Oc3ccccc3Br)cc21 | –
– | COc1cc(C)c(C(=O)NS(=O)(=O)c2cccc3cccnc23)cc1-c1ccc(C#CCO)s1 | IC50 [9]: 0.016 µM
